Where a name gives a salt, the structure may show the parent alone.
Assays:
[1] = Solubility of the powder in water; type: physicochemical
[2] = Pharmacokinetics after administration of the subject combination; details: for Cmax relative to the peak level of bupropion: after administration of the subject combination; for apparent elimination half-life (metabolite): subject combination

Compound | solubility in water [1] | Cmax relative to the peak level of bupropion [2] | apparent elimination half-life (metabolite) [2] | dose proportionality of pharmacokinetics (AUC and Cmax) ([2]; co-administered with bupropion, steady state, dextromethorphan 30 to 60 mg, bupropion 75 to 150 mg) | Cmax when administered with food ([2]; subject combination with food)
CC(NC(C)(C)C)C(=O)c1cccc(Cl)c1 (racemic) [Bupropion hydrochloride, (±)-1-(3-chlorophenyl)-2-[(1,1-dimethylethyl)amino]-1-propanone hydrochloride] | highly soluble in water |  |  |  | 
CC(NC(C)(C)C)C(O)c1cccc(Cl)c1 (stereo not drawn) [erythrohydroxybupropion] |  | approximately equal to | ~44 h |  | 
COc1ccc2c(c1)[C@]13CCCC[C@@H]1[C@H](C2)N(C)CC3 [dextromethorphan, reference compound] |  |  |  | nonlinear pharmacokinetics at steady state | unchanged
C[C@H]1NC(C)(C)CO[C@]1(O)c1cccc(Cl)c1 [hydroxybupropion] |  | approximately 14 times | approximately 35 hours |  | 
C[C@H](NC(C)(C)C)[C@@H](O)c1cccc(Cl)c1 [threohydroxybupropion] |  | about 5 times | ~33 h |  | 

— patent US20250281430A1, “BUPROPION AS A MODULATOR OF DRUG ACTIVITY” (ANTECIP BIOVENTURES II LLC, priority 2022, published 2025)
